Assay results as given in US6693102B2, “Pyridine-substituted pyrazolopyridine derivatives” (Bayer Aktiengesellschaft, priority 2000, dated 2004).

Tested on: rabbit aorta rings
Test: Vasorelaxant action in vitro (phenylephrine-contracted rabbit aorta rings)
Conditions: Oryctolagus cuniculus, phenylephrine contraction, 37° C., 0.1% DMSO
Experimental: Rabbits are stunned by a blow to the neck and exsanguinated. The aorta is removed, freed from adherent tissue, divided into rings 1.5 mm wide and individually transferred under a pretension to 5 ml organ baths containing carbogen-aerated Krebs-Henseleit solution of the following composition (mM) at 37° C.: NaCl: 119; KCl: 4.8; CaCl2×2H2O: 1; MgSO4×7H2O; 1.4; KH2PO4: 1.2; NaHCO3:25; Glucose: 10. The contractile force is determined using Statham UC2 cells, amplified and digitalized by means of A/D converters (DAS-1802 HC, Keithley Instruments Munich), and recorded in parallel on linear recorders. To produce a contraction, phenylephrine is added to the bath cumulatively in increasing concentration. After several control cycles, the substance to be investigated is investigated in each further passage in increasing dose in each case and the height of the contraction is compared with the height of the contraction reached in the last previous passage. From this, the concentration is calculated which is necessary in order to reduce the height of the control value by 50% (IC50). The standard administration volume is 5 μl and the proportion of DMSO in the bath solution corresponds to 0.1%.

SMILES | IC50
Nc1nc(-c2nn(Cc3ccccc3F)c3ncccc23)nc(N)c1-c1ccncc1 [Example 4, 2-[1-(2-fluorobenzyl)-1H-pyrazolo[3,4-b]pyridine-3-yl]-5-(4-pyridinyl)-4,6-pyrimidine diamine] | 1210 nM
Nc1nc(-c2nn(Cc3ccccc3F)c3ncccc23)ncc1-c1ccncc1 [Example 1, 2-[1-[(2-Fluorophenyl)methyl]-1H-pyrazolo[3,4-b]pyridin-3-yl]-5-(4-pyridinyl)-4-pyrimidinamine] | 660 nM
